Test results as given in US20060069132A1, “Azolecarboxamide herbicides” (priority 2004, published 2006).

Experiments:
giant foxtail = experiment: Test B pre-/postemergence herbicide test; assay type: in vivo, Setaria faberi; conditions: for Foxtail, Giant plant response rating: postemergence
Procedure, shortened: (§1)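 Plants compared with untreated controls 13–15 days post-treatment and given a visual 0–100 injury score. Applications: preemergence to seeds; postemergence at 1- to 4-leaf (2–18 cm); paddy species flooded, 2-leaf stage. Vehicle non-phytotoxic, surfactant included.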

velvetleaf = experiment: Test B pre-/postemergence herbicide test; assay type: in vivo, Abutilon theophrasti; conditions: for Velvetleaf plant response rating: postemergence
Procedure, shortened: as §1

Surinam grass = experiment: Test B pre-/postemergence herbicide test; assay type: in vivo, Urochloa decumbens; conditions: for Surinam Grass plant response rating: postemergence
Procedure, shortened: as §1

rice [1] = experiment: Test B pre-/postemergence herbicide test; assay type: in vivo, Oryza sativa; conditions: 0 = no effect, 100 = complete control, preemergence
Procedure, shortened: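 Greenhouse pot assay with simultaneous preemergence (treated seed) and postemergence (2–18 cm seedlings) applications of surfactant-containing, non-phytotoxic solvent formulations. Response scored visually 13–15 days later on a 0–100 scale, 100 meaning complete control.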

barnyardgrass [2] = experiment: Test B flooded paddy test; assay type: in vivo, Echinochloa crus-galli; conditions: 1000 g ai/ha, scale 0 to 100 (0 no effect, 100 complete control)
Procedure, shortened: (§2)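 Visual ratings, 0 (no effect) to 100 (complete control), made versus controls after 13–15 d greenhouse. Paddy plants treated at 2-leaf stage; postemergence plants at 1- to 4-leaf stage, 2–18 cm tall.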

morningglory = experiment: Test B pre-/postemergence herbicide test; assay type: in vivo, Ipomoea coccinea; conditions: for Morningglory plant response rating: postemergence
Procedure, shortened: (§3)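 Visual rating, 0 (no effect) to 100 (complete control), versus untreated controls after 13–15 d in greenhouse. Pre- and postemergence applications (postemergence plants 2–18 cm, 1–4 leaves); flooded paddy arm at 2-leaf stage. Compounds in non-phytotoxic solvent plus surfactant.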

wheat = experiment: Test B postemergence herbicide test; assay type: in vivo, Triticum aestivum; parameters: key to Wheat plant response rating: 0 = no effect, 100 = complete control; conditions: postemergence
Procedure, shortened: (§4)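 Treated at 2-leaf (paddy) or 1–4-leaf, 2–18 cm (postemergence); greenhouse 13–15 d; visual score vs control, 0 none to 100 complete control; dash = not tested.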

large crabgrass = experiment: Test B pre-/postemergence herbicide test; assay type: in vivo, Digitaria sanguinalis; conditions: for Crabgrass, Large plant response rating: postemergence
Procedure, shortened: as §1

ducksalad = experiment: Test B flooded paddy test; assay type: in vivo, Heteranthera limosa; conditions: 1000 g ai/ha, scale 0 to 100 (0 no effect, 100 complete control)
Procedure, shortened: as §2

corn = experiment: Test B pre-/postemergence herbicide test; assay type: in vivo, Zea mays; conditions: for Corn plant response rating: postemergence
Procedure, shortened: as §1

barnyardgrass [3] = experiment: Test B pre-/postemergence herbicide test; assay type: in vivo, Echinochloa crus-galli; conditions: for Barnyardgrass plant response rating: postemergence, scale 0 (no effect) to 100 (complete control)
Procedure, shortened: as §3

lambsquarters = experiment: Test B pre-/postemergence herbicide test; assay type: in vivo, Chenopodium album; conditions: for Lambsquarters plant response rating: postemergence
Procedure, shortened: as §1

cocklebur = experiment: Test B pre-/postemergence herbicide test; assay type: in vivo, Xanthium strumarium; conditions: for Cocklebur plant response rating: postemergence, scale 0 (no effect) to 100 (complete control)
Procedure, shortened: as §3

wild oat = experiment: Test B postemergence herbicide test; assay type: in vivo, Avena fatua; conditions: postemergence
Procedure, shortened: as §4

blackgrass = experiment: Test B postemergence herbicide test; assay type: in vivo, Alopecurus myosuroides; conditions: postemergence, visual rating, scale 0 (no effect) to 100 (complete control)
Procedure, shortened: as §2

rice [4] = experiment: Test B flooded paddy test; assay type: in vivo, Oryza sativa; conditions: 1000 g ai/ha, scale 0 to 100 (0 no effect, 100 complete control)
Procedure, shortened: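 Formulated test chemicals went onto postemergence plants measuring 2 to 18 cm, at one to four leaves. For the paddy assay, species had reached two leaves. Scoring took place 13–15 days later by eye, relative to untreated plants, using 0 for no effect up to 100 for full control.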

pigweed = experiment: Test B pre-/postemergence herbicide test; assay type: in vivo, Amaranthus retroflexus; conditions: for Pigweed plant response rating: postemergence
Procedure, shortened: as §1

[5] = system: small flower umbrella sedge; experiment: Test B flooded paddy test; assay type: in vivo, Cyperus difformis; conditions: 1000 g ai/ha, scale 0 to 100 (0 no effect, 100 complete control)
Procedure, shortened: as §2

[6] = 125 g ai/ha, 0 = no effect, 100 = complete control, preemergence
[7] = 500 g ai/ha, visual rating, 0 = no effect, 100 = complete control, preemergence
[8] = 125 g ai/ha, visual rating, scale 0 (no effect) to 100 (complete control)
[9] = 500 g ai/ha, scale 0 to 100, 0 is no effect, 100 is complete control

C#CCNC(=O)c1cncc(NC(=O)c2cc(C(C)(C)C)nn2CC)c1 [Compound 264]
100: Plant response rating, Lambsquarters (lambsquarters; [7]) | Plant response rating, Pigweed (pigweed; [7])
90: Ducksalad plant response rating (ducksalad)
50: Plant response rating, Crabgrass, Large (large crabgrass; [7]) | Sedge, Umbrella plant response rating [5]
10: Plant response rating, Foxtail, Giant (giant foxtail; [7]) | Plant response rating, Velvetleaf (velvetleaf; [7]) | Plant response rating, Surinam Grass (Surinam grass; [7]) | Wheat plant response rating (wheat; [9]) | Crabgrass, Large plant response rating (0 to 100 scale) (large crabgrass; [6]) | Plant response rating, Barnyardgrass (barnyardgrass [3]; [7])
20: Oat, Wild plant response rating (wild oat; [9]) | Blackgrass plant response rating (blackgrass; 500 g ai/ha)
0: Foxtail, Giant plant response rating (0 to 100 scale) (giant foxtail; [6]) | Foxtail, Giant plant response rating (giant foxtail; [8]) | Foxtail, Giant plant response rating (giant foxtail; [9]) | Velvetleaf plant response rating (0 to 100 scale) (velvetleaf; [6]) | Velvetleaf plant response rating (velvetleaf; [8]) | Velvetleaf plant response rating (velvetleaf; [9]) | Surinam Grass plant response rating (0 to 100 scale) (Surinam grass; [6]) | Surinam Grass plant response rating (Surinam grass; [8]) | Surinam Grass plant response rating (Surinam grass; [9]) | Rice plant response rating (0 to 100 scale) (rice [1]; 125 g ai/ha) | Plant response rating, Rice (rice [1]; 500 g ai/ha, visual rating) | Barnyardgrass plant response rating (barnyardgrass [2]) | Morningglory plant response rating (0 to 100 scale) (morningglory; [6]) | Plant response rating, Morningglory (morningglory; [7]) | Morningglory plant response rating (morningglory; [8]) | Morningglory plant response rating (morningglory; [9]) | Wheat plant response rating (wheat; [8]) | Crabgrass, Large plant response rating (large crabgrass; [8]) | Crabgrass, Large plant response rating (large crabgrass; [9]) | Corn plant response rating (0 to 100 scale) (corn; [6]) | Plant response rating, Corn (corn; [7]) | Corn plant response rating (corn; [8]) | Corn plant response rating (corn; [9]) | Barnyardgrass plant response rating (0 to 100 scale) (barnyardgrass [3]; [6]) | Barnyardgrass plant response rating (barnyardgrass [3]; 125 g ai/ha, visual rating) | Barnyardgrass plant response rating (barnyardgrass [3]; 500 g ai/ha, visual rating) | Lambsquarters plant response rating (0 to 100 scale) (lambsquarters; [6]) | Lambsquarters plant response rating (lambsquarters; [8]) | Lambsquarters plant response rating (lambsquarters; [9]) | Cocklebur plant response rating (0 to 100 scale) (cocklebur; [6]) | Plant response rating, Cocklebur (cocklebur; [7]) | Cocklebur plant response rating (cocklebur; 125 g ai/ha, visual rating) | Cocklebur plant response rating (cocklebur; 500 g ai/ha, visual rating) | Oat, Wild plant response rating (wild oat; [8]) | Blackgrass plant response rating (blackgrass; 125 g ai/ha) | Rice plant response rating (rice [4]) | Pigweed plant response rating (0 to 100 scale) (pigweed; [6]) | Pigweed plant response rating (pigweed; [8]) | Pigweed plant response rating (pigweed; [9])
